Experimental data as given in paper PMC6691587, “New CXCR1/CXCR2 inhibitors represent an effective treatment for kidney or head and neck cancers sensitive or refractory to reference treatments” (Theranostics, 2019).
Where two headings read alike, the source gives them in different places.

Columns and labels:
OCI-AML3 = assay: XTT cell viability assay, OCI-AML3 AML cells; assay type: cell-based, human; settings: Homo sapiens, OCI-AML-3, 48 h, SD 10%, mean of three experiments, read-out: IC50 L3 (AML)
Experimental: (§1) Fifty microliters of sodium 3′-[1-phenylaminocarbonyl)-3,4-tetrazolium]-bis(4-methoxy-6-nitro) benzene sulfonic acid hydrate (XTT) reagent was added to each well. The assay is based on the cleavage of the yellow tetrazolium salt XTT to form an orange formazan dye by metabolically active cells. This bio-reduction occurs in viable cells only and is related to NAD(P)H production through glycolysis. Therefore, the amount of formazan dye measured at 490 nm directly correlated with the number of metabolically active cells reflecting cell proliferation and viability. Each assay was performed in quadruplicate.

normal cells (15S) = assay: FACS analysis of apoptotic markers, normal cells; assay type: cell-based; settings: C29 at 1 µmol/L
Experimental: Apoptosis analysis: After stimulation, cells were washed with ice-cold PBS and were stained with the annexin-V-fluo staining kit (Roche, Meylan, France) according to the manufacturer's procedure. Fluorescence was measured using the FL2 (AV) and FL3 (propidium iodide, PI) channels of a fluorescence-activated cell sorter apparatus (Calibur cytometer).

786-O = assay: XTT cell viability assay, 786-O RCC cells; assay type: cell-based, human; settings: for IC50: Homo sapiens, 786-0
Experimental: as §1

## O=C(Nc1cccc(Cl)c1)Nc1nc2ccc([N+](=O)[O-])cc2s1 [C29]
OCI-AML3
  IC50: 4000 nM
Normal cells (15S)
  apoptotic markers in normal cells (15S): not the case for normal cells
786-O; CXCR1+/CXCR2+, read-out: IC50 786-O
  IC50: 2000 nM
786-O; XTT assay, 48 h, SD 10%, mean of three experiments, read-out: IC50 786 (Kidney RCC)
  IC50: 2000 nM
786-O; SI = IC50 in normal cells (15S)/IC50 in 786-O
  Selectivity index 786-O: 6.25
786-O; XTT, 1 to 10 µM 48 h, 2.5 µM 24 to 96 h
  viability of sensitive 786-O RCC cells compared with sunitinib: as efficiently as sunitinib
